# Assay results as given in ChEMBL document CHEMBL5649167, “The SUV4-20 inhibitor A-196 verifies a role for epigenetics in genomic integrity” (Nat Chem Biol, 2017).
# Calls of active or inactive are those of the source. No cut-off for these calls is given here.
# Legend:
# [1] = molecular target: Neurotensin receptor type 1 (Homo sapiens) (UniProt P30989); experiment: Inhibition of human NTS1 at 10 uM relative to control
# MEF [2] = experiment: Antiproliferative activity against mouse MEF cells assessed as change in H4K20me3 at 10 uM incubated for 3 days by immunofluorescence analysis; type: functional, cell-based; conditions: time 3.0 day
# Homo sapiens [3] = species on record: Homo sapiens; experiment: Inhibition of GABAA (unknown origin) at 10 uM relative to control
# [4] = molecular target: Histone-lysine N-methyltransferase KMT5B (Homo sapiens) (UniProt Q4FZB7); experiment: Inhibition of recombinant human 6His-(Tev)-G-SUV420H1 (69 to 335 residues) using Biotin-tagged H4K20me1 and [3H-SAM] as substrate incubated for 2 hrs by scintillation proximity assay
# Chain of Histone-lysine N-methyltransferase KMT5B (Homo sapiens) (Q4FZB7 whole entry, looked up, the tested form may be a part): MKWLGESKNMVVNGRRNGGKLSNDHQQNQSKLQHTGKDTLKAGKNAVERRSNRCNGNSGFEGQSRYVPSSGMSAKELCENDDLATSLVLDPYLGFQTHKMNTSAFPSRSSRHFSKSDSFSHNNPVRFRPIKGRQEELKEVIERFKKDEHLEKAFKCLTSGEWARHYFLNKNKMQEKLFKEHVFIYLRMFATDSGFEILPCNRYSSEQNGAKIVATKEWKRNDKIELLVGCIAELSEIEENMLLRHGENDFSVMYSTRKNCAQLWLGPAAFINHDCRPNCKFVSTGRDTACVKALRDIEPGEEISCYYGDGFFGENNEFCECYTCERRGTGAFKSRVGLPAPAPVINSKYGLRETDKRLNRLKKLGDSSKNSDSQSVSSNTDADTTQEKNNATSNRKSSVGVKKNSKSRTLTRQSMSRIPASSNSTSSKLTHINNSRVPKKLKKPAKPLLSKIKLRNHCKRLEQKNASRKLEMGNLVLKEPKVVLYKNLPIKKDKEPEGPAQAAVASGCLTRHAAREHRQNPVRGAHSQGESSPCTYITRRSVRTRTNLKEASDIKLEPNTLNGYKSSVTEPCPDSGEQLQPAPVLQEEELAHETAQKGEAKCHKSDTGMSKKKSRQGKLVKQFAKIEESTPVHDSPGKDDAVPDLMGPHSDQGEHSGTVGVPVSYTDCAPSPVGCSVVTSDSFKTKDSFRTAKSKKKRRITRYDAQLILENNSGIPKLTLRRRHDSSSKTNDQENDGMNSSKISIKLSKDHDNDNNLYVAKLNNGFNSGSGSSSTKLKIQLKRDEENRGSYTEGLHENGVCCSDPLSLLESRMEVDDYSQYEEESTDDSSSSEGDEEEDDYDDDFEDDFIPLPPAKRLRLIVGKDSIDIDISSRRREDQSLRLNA
# U2OS [5] = experiment: Inhibition of H4K20me2 in human U2OS cells assessed as change in methylation level at 10 uM incubated for 48 hrs by Western blotting analysis; type: functional, cell-based
# Homo sapiens [6] = species on record: Homo sapiens; experiment: Inhibition of human GABAA at 10 uM relative to control
# [7] = molecular target: 5-hydroxytryptamine receptor 7 (Homo sapiens) (UniProt P34969); experiment: Inhibition of human 5-HT7 in stable HEK cells at 10 uM relative to control; type: cell-based
# [8] = molecular target: Protein arginine N-methyltransferase 1 (Homo sapiens) (UniProt Q99873); experiment: Inhibition of PRMT1 (unknown origin) using Biotin-tagged H4K20me1 and [3H-SAM] as substrate at 1 to 10 uM incubated for 2 hrs by scintillation proximity assay; conditions: dose 1-10 µM
# [9] = molecular target: Serine/threonine-protein kinase Chk1 (Homo sapiens) (UniProt O14757); experiment: Inhibition of human CHK1 at 10 uM relative to control
# U2OS [10] = experiment: Induction of DNA repair in human U2OS cells expressing I-SceI reporter assessed as change in HDR-mediated repair at 1 uM by flow cytometry analysis; type: functional, cell-based
# [11] = molecular target: D(1B) dopamine receptor (Homo sapiens) (UniProt P21918); experiment: Inhibition of human D(5) dopamine receptor expressed in HEK293T cells at 10 uM relative to control; type: cell-based
# Chain of D(1B) dopamine receptor (Homo sapiens) (P21918 whole entry): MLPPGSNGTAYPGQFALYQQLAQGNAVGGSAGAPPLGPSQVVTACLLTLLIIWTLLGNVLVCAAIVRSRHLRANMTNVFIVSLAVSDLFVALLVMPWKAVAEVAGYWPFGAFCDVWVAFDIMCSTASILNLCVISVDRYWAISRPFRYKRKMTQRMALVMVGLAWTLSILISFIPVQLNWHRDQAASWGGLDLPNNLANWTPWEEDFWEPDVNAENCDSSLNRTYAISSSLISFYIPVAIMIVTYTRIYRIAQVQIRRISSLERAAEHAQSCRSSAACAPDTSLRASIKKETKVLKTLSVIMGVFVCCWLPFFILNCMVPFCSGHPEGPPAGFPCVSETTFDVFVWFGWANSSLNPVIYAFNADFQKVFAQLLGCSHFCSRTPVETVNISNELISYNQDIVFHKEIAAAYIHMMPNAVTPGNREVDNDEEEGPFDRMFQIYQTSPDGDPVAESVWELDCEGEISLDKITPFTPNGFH
# [12] = molecular target: Histone-lysine N-methyltransferase NSD2 (Homo sapiens) (UniProt O96028); experiment: Inhibition of NSD2 (unknown origin) at 1 to 10 uM incubated for 1 hrs by scintillation proximity assay; conditions: dose 1-10 µM
# [13] = molecular target: Protein arginine N-methyltransferase 3 (Homo sapiens) (UniProt O60678); experiment: Inhibition of PRMT3 (unknown origin) using Biotin-tagged H4K20me1 and [3H-SAM] as substrate at 1 to 10 uM incubated for 2 hrs by scintillation proximity assay; conditions: dose 1-10 µM
# PC-3 = experiment: Antiproliferative activity against human PC-3 cells assessed as cell population doubling at 1 uM incubated for 80 days; type: functional, cell-based; conditions: time 80.0 day
# U2OS [14] = experiment: Induction of DNA repair in human U2OS cells expressing I-SceI reporter assessed as decrease in H4K20me2 level by Western blot analysis; type: functional, cell-based
# LNCaP [15] = experiment: Cytotoxicity against human LNCaP cells assessed as cell viability at 1.5 to 100 uM incubated after 72 hrs; type: functional, cell-based; conditions: dose 1.5-100 µM
# [16] = molecular target: N-lysine methyltransferase SMYD2 (Homo sapiens) (UniProt Q9NRG4); experiment: Inhibition of SMYD2 (unknown origin) using Biotin-tagged H4K20me1 and [3H-SAM] as substrate at 1 to 10 uM incubated for 2 hrs by scintillation proximity assay; conditions: dose 1-10 µM
# [17] = molecular target: Proto-oncogene tyrosine-protein kinase Src (Homo sapiens) (UniProt P12931); experiment: Inhibition of human Src at 10 uM relative to control
# LNCaP [18] = experiment: Cytotoxicity against human LNCaP cells assessed as cell viability upto 12.5 uM incubated for 48 hrs; type: functional, cell-based
# [19] = molecular target: DNMT3A2/3L complex (Homo sapiens) (UniProt Q9Y6K1+Q9UJW3); experiment: Inhibition of DNMT3A/3L (unknown origin) at 1 to 10 uM incubated for 1 hrs by scintillation proximity assay; type: protein-complex assay; conditions: dose 1-10 µM
# Chain of DNMT3A2/3L complex (Homo sapiens) (Q9UJW3 whole entry, looked up): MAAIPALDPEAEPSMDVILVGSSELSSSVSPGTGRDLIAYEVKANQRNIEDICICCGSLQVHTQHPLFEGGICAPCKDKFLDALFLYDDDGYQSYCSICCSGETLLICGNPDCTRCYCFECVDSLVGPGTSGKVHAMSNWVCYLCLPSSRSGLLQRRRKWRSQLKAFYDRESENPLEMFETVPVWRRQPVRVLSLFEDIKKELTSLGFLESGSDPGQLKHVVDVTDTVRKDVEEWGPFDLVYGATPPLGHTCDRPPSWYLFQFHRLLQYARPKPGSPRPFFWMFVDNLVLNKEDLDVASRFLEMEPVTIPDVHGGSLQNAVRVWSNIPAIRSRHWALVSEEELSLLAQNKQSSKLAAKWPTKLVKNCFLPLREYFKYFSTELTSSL
# Chain of DNMT3A2/3L complex (Homo sapiens) (Q9Y6K1 whole entry, looked up): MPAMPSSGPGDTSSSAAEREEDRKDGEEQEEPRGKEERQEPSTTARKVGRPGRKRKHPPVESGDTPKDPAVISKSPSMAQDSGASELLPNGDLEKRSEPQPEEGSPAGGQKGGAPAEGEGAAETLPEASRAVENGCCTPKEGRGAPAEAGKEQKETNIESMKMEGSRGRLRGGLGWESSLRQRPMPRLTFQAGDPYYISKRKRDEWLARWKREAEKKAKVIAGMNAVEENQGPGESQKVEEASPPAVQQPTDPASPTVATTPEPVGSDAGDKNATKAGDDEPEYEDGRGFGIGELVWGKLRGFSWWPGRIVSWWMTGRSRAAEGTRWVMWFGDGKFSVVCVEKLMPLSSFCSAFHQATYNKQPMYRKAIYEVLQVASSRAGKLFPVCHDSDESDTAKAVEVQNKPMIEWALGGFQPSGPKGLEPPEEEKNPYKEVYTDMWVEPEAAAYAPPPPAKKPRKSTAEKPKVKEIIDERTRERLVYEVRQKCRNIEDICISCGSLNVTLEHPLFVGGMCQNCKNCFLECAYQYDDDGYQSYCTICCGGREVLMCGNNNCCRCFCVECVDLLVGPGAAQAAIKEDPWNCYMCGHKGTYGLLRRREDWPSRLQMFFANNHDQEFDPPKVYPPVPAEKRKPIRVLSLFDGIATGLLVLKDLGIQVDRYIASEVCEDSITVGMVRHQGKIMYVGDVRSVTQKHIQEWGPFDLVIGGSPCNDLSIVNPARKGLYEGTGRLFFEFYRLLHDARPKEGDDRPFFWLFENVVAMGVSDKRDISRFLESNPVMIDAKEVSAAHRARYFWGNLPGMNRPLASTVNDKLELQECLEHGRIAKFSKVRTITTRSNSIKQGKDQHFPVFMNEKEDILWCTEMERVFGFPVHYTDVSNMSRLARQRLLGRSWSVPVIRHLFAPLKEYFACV
# HL-60 = experiment: Cytotoxicity against human HL-60 cells assessed as cell viability at 1.5 to 100 uM incubated after 72 hrs; type: functional, cell-based; conditions: dose 1.5-100 µM
# [20] = molecular target: DNA (cytosine-5)-methyltransferase 1 (Homo sapiens) (UniProt P26358); experiment: Inhibition of DNMT1 (unknown origin) using dsDNA as substrate at 1 to 10 uM incubated for 1 hrs in the presence of [3H-SAM] by scintillation proximity assay; conditions: dose 1-10 µM
# [21] = molecular target: Mitogen-activated protein kinase 14 (Homo sapiens) (UniProt Q16539); experiment: Inhibition of human p38alpha at 10 uM relative to control
# Rattus norvegicus = species on record: Rattus norvegicus; experiment: Inhibition of Rat alpha 2-Adrenoceptor at 10 uM relative to control
# [22] = molecular target: Mitogen-activated protein kinase 1 (Homo sapiens) (UniProt P28482); experiment: Inhibition of human ERK2 at 10 uM relative to control
# U2OS [23] = experiment: Antiproliferative activity against human U2OS cells assessed as cell population doubling at 1 uM incubated for 80 days; type: functional, cell-based; conditions: time 80.0 day
# U2OS [24] = experiment: Inhibition of colony formation in human U2OS cells at 1 uM incubated for 48 hrs in the presence of aphidicolin by cell clonogenic assay; type: functional, cell-based
# [25] = molecular target: Fibroblast growth factor receptor 1 (Homo sapiens) (UniProt P11362); experiment: Inhibition of human FGFR1 kinase at 10 uM relative to control
# Chain of Fibroblast growth factor receptor 1 (Homo sapiens) (P11362 22-822 limits assumed): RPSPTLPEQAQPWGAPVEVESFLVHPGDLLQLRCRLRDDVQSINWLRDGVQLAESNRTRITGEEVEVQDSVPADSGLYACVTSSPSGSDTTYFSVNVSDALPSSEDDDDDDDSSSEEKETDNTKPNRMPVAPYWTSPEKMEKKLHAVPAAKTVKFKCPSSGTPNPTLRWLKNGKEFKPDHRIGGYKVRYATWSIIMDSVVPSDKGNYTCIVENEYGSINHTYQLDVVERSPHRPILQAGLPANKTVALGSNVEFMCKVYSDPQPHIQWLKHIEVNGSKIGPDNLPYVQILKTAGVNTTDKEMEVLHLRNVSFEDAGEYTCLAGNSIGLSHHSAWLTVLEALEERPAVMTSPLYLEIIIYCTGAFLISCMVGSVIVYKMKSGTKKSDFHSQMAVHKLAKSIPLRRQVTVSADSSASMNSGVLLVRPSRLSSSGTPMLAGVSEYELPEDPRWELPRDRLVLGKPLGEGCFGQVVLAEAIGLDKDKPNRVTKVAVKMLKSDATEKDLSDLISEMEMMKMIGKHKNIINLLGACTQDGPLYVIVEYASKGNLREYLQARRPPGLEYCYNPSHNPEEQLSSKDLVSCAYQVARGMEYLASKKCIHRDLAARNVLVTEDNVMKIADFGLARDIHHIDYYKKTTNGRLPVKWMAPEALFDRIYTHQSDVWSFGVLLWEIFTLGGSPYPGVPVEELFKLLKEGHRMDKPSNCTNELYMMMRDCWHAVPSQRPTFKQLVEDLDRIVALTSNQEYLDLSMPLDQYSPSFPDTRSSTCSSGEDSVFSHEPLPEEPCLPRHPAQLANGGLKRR
# MEF [26] = experiment: Antiproliferative activity against mouse MEF cells assessed as increase in H4K20me1 level at 10 uM incubated for 3 days by immunofluorescence analysis; type: functional, cell-based; conditions: time 3.0 day
# [27] = molecular target: Histone-lysine N-methyltransferase SETD7 (Homo sapiens) (UniProt Q8WTS6); experiment: Inhibition of SETD7 (unknown origin) using Biotin-tagged H4K20me1 and [3H-SAM] as substrate at 1 to 10 uM incubated for 2 hrs by scintillation proximity assay; conditions: dose 1-10 µM
# [28] = molecular target: Glycogen synthase kinase-3 beta (Homo sapiens) (UniProt P49841); experiment: Inhibition of human GSK3beta at 10 uM relative to control
# [29] = molecular target: Histone-lysine N-methyltransferase EHMT2 (Homo sapiens) (UniProt Q96KQ7); experiment: Inhibition of G9a (unknown origin) using Biotin-tagged H4K20me1 and [3H-SAM] as substrate at 1 to 10 uM incubated for 2 hrs by scintillation proximity assay; conditions: dose 1-10 µM
# [30] = molecular target: Histone-lysine N-methyltransferase EHMT1 (Homo sapiens) (UniProt Q9H9B1); experiment: Inhibition of EHMT1 (unknown origin) using Biotin-tagged H4K20me1 and [3H-SAM] as substrate at 1 to 10 uM incubated for 2 hrs by scintillation proximity assay; conditions: dose 1-10 µM
# Chain of Histone-lysine N-methyltransferase EHMT1 (Homo sapiens) (Q9H9B1 whole entry): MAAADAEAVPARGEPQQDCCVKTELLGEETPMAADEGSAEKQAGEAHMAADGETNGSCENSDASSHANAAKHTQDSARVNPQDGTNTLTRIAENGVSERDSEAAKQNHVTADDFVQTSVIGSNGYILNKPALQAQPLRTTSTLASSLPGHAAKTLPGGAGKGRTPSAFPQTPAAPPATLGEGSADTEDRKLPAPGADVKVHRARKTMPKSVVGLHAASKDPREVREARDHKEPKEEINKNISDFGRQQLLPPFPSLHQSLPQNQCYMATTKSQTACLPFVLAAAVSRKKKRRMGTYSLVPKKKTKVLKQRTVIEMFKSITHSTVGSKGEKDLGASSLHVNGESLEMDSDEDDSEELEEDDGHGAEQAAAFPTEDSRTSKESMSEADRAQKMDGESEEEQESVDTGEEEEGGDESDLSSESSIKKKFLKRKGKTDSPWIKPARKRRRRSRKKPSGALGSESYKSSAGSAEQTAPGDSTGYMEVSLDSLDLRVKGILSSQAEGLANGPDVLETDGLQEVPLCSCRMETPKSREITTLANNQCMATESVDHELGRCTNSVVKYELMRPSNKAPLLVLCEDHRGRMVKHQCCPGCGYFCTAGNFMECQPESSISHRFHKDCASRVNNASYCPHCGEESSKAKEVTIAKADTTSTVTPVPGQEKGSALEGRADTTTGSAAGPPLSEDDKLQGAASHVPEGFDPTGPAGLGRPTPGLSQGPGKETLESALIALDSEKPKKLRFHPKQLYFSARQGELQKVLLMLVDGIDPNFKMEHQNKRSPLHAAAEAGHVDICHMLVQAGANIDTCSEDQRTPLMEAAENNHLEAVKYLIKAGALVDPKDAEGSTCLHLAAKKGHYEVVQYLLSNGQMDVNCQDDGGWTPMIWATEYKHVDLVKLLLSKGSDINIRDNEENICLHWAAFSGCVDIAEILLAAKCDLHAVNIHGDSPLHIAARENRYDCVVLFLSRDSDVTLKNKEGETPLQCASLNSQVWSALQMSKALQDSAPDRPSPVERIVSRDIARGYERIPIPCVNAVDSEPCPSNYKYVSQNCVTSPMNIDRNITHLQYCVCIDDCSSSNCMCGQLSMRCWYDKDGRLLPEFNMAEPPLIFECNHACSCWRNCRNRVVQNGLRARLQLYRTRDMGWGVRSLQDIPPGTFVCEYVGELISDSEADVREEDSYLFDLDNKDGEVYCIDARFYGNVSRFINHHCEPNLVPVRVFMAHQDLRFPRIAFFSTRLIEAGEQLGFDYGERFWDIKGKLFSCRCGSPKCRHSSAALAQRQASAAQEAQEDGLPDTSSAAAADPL
# U2OS [31] = experiment: Antiproliferative activity against human U2OS cells assessed as inhibition in H4K20me2 expression level 21 doublings by Western blot analysis; type: functional, cell-based
# [32] = molecular target: Histone-lysine N-methyltransferase KMT5B (Homo sapiens) (UniProt Q4FZB7); experiment: Inhibition of recombinant human 6His-(Tev)-G-SUV420H1 (69 to 335 residues) using Biotin-tagged H4K20me1 and [3H-SAM] as substrate at 1 uM incubated for 2 hrs by scintillation proximity assay
# U2OS [33] = experiment: Inhibition of colony formation in human U2OS cells at 1 uM incubated for 48 hrs in the presence of CPT by cell clonogenic assay; type: functional, cell-based
# [34] = molecular target: Cyclin-dependent kinase 1 (Homo sapiens) (UniProt P06493); experiment: Inhibition of human CDC2 at 10 uM relative to control
# Chain of Cyclin-dependent kinase 1 (Homo sapiens) (P06493 whole entry, looked up): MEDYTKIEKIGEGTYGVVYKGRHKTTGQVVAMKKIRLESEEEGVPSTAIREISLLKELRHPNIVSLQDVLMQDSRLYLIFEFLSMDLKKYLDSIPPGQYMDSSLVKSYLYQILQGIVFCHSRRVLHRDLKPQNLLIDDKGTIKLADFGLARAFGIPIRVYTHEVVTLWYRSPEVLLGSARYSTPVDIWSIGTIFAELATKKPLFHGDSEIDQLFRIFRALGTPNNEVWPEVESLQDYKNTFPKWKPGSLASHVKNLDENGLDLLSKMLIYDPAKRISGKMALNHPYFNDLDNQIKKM
structure (smiles),measurement,setting,value
O=C(c1nnc(NC2CCCC2)c2cc(Cl)c(Cl)cc12)N1CCC(O)CC1,inhibition,[1],3%
same,Activity,MEF [2],inactive
same,inhibition,Homo sapiens [3],25%
same,inhibition,[4],inactive
same,Activity,U2OS [5],inactive
same,inhibition,Homo sapiens [6],-7%
same,inhibition,[7],19%
Clc1cc2c(NC3CCCC3)nnc(-c3ccncc3)c2cc1Cl,inhibition,[8],inactive
same,inhibition,[9],3%
same,Activity,U2OS [10],inactive
same,inhibition,[11],-4%
same,inhibition,[12],inactive
same,inhibition,[13],inactive
same,Activity,PC-3,Active
same,Activity,U2OS [14],Active
same,Activity,LNCaP [15],Active
same,inhibition,[16],inactive
same,inhibition,[17],-1%
same,Activity,LNCaP [18],Active
same,inhibition,[19],inactive
same,Activity,HL-60,Active
same,inhibition,[20],inactive
same,inhibition,[21],-4%
same,inhibition,Rattus norvegicus,5%
same,inhibition,[22],1%
same,Activity,U2OS [23],Active
same,inhibition,U2OS [24],Active
same,inhibition,[25],-8%
same,Activity,MEF [26],Active
same,inhibition,[27],inactive
same,inhibition,[28],1%
same,inhibition,[29],inactive
same,inhibition,[30],inactive
same,Activity,U2OS [31],Active
same,inhibition,[32],Active
same,inhibition,U2OS [33],Active
same,inhibition,[34],3%
